Measurements published in patent EP4603105A1, “PHARMACEUTICAL COMPOSITION CONTAINING CYCLIC COMPOUND HAVING SELECTIVE KRAS INHIBITORY EFFECT AGAINST HRAS AND NRAS” (CHUGAI SEIYAKU KABUSHIKI KAISHA, priority 2022, dated 2024).
*1 amine or outer side, *2 acyl side, *3 side chain or, on linkers, in order; H or OH if unused. Where a SMILES comes first, the peptide text is derived from it. Bridges are numbered along the chain shown (N, C = ends). [ ]: non-standard residue; d: D form. The star is where a group is joined. hPhe(3-Cl-4-CF3) = N[C@@H](CCc1ccc(C(F)(F)F)c(Cl)c1)C(=O)O; X39 = O=C([C@H](Cc1ccc(C(F)(F)F)cc1)N(CC1CCC1)[*:1])[*:2]; NPrPhe(4-CF3) = CCCN[C@@H](Cc1ccc(C(F)(F)F)cc1)C(=O)O; NMeAbu(4,4,4-F3) = CN[C@@H](CC(F)(F)F)C(=O)O; NMeGly(cPent) = CN[C@H](C(=O)O)C1CCCC1; NMeGly(cBu) = CN[C@H](C(=O)O)C1CCC1; NMeD = CN[C@@H](CC(=O)O)C(=O)O; NMeL = CN[C@@H](CC(C)C)C(=O)O; Morpholide = C1CN(*)CCO1; NMeA = CN[C@@H](C)C(=O)O; Ac5c = NC1(C(=O)O)CCCC1; Aze = O=C(O)[C@@H]1CCN1; Sar = CNCC(=O)O

Legend:
[1] = system: human lung cancer strain NCI-H441; assay type: cell-based
Summary of the method: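 Proliferation was scored by […] measured after the reagent was added to cultures kept at 37°C in 5% carbon dioxide.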

[2] = molecular target: GDP-bound NRAS wild-type protein (Homo sapiens, UniProt P01111); test: Binding to NRAS by surface plasmon resonance (SPR), KD and KD ratio to KRAS
Chain of GDP-bound NRAS wild-type protein (P01111 whole entry): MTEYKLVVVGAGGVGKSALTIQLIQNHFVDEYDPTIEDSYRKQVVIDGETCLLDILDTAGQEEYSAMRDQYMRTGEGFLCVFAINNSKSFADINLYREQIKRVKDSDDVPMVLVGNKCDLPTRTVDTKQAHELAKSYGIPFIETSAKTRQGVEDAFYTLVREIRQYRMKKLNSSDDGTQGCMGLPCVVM
Summary of the method: (§1)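 SPR, 30°C: Avi-biotin RAS·GDP captured via Biotin CAPture (~100–300 RU); running buffer HBS pH 7.4, 1 mM DTT, 10 mM MgCl2, 0.01% Tween 20, 10 µM GDP, 4% DMSO. Single-cycle kinetics, 100 µL/min, 75 s injections; 1:1 model → KD.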

HRAS wild-type protein = HRAS wild-type protein (Homo sapiens, UniProt P01112); test: Binding to HRAS by surface plasmon resonance (SPR), KD and KD ratio to KRAS
Chain of HRAS wild-type protein (P01112 whole entry): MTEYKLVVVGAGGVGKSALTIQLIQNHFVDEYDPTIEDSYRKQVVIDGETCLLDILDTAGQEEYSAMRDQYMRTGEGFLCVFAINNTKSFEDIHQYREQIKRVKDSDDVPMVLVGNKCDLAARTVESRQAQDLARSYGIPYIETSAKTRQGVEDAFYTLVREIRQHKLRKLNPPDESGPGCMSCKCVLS
Summary of the method: as §1

[3] = ratio of KD for GDP-bound NRAS wild-type protein to KD for KRAS
[4] = ratio of KD for HRAS wild-type protein to KD for KRAS
[5] = ratio of the KD value with respect to GDP-bound NRAS wild-type protein to the KD value with respect to KRAS
[6] = ratio of the KD value with respect to HRAS wild-type protein to the KD value with respect to KRAS

IC50 [1]	Structure (SMILES)	NRAS /KRAS [2, 3]	HRAS /KRAS (HRAS wild-type protein; [4])	NRAS /KRAS [2, 5]	HRAS /KRAS (HRAS wild-type protein; [6])	NRAS /KRAS ([2]; ratio of KD value for GDP-bound NRAS wild-type protein to KD value for KRAS (SPR))	HRAS /KRAS (HRAS wild-type protein; ratio of KD value for HRAS wild-type protein to KD value for KRAS (SPR))
3 nM	CCCN1C(=O)CN(C)C(=O)CN(C)C(=O)[C@H]([C@@H](C)CC)NC(=O)[C@H](CC(F)(F)F)N(C)C(=O)C[C@@H](C(=O)N2CCOCC2)N(C)C(=O)[C@H](C2CCCC2)N(C)C(=O)C2(CCCC2)NC(=O)[C@@H]2CCCN2C(=O)[C@H](CCc2ccc(C(F)(F)F)c(Cl)c2)NC(=O)CN(C)C(=O)[C@@H]1Cc1ccc(C(F)(F)F)cc1 [PP0187] ([NMeAbu(4,4,4-F3)]I[Sar][Sar][NPrPhe(4-CF3)][Sar][hPhe(3-Cl-4-CF3)]P[Ac5c][NMeGly(cPent)][NMeD]-Morpholide; lactam N-11)	B (a compound having 3 or more and less than 10 is denoted as B)	C (A compound having a KD ratio of 0.1 or more and less than 3 is denoted as C)				
21.7 nM	CC[C@H](C)[C@@H]1NC(=O)[C@H](CC(C)C)N(C)C(=O)C[C@@H](C(=O)N2CCOCC2)N(C)C(=O)[C@H](C2CCCC2)N(C)C(=O)C2(CCCC2)NC(=O)[C@@H]2CCCN2C(=O)[C@H](CCc2ccc(C(F)(F)F)c(Cl)c2)NC(=O)CN(C)C(=O)[C@H](Cc2ccc(C(F)(F)F)cc2)N(CC2CCC2)C(=O)[C@@H]2CCN2C(=O)[C@H](C)N(C)C1=O [PP0109] ([NMeL]I[NMeA][Aze][X39][Sar][hPhe(3-Cl-4-CF3)]P[Ac5c][NMeGly(cPent)][NMeD]-Morpholide; lactam N-11)	C (A compound having a KD ratio of 0.1 or more and less than 3 is denoted as C)	B (a compound having 3 or more and less than 10 is denoted as B)				
11.1 nM	CCCOC[C@H]1C(=O)N[C@@H]([C@@H](C)CC)C(=O)N(C)CC(=O)N(C)[C@H]2C/C=C\CCN(C2=O)[C@@H](Cc2ccc(C)cc2)C(=O)N(C)CC(=O)N[C@@H](CCc2ccc(C(F)(F)F)c(Cl)c2)C(=O)N2C[C@H](C)C[C@H]2C(=O)NC2(CC(C)(C)C2)C(=O)N(C)[C@@H](C2CCCC2)C(=O)N(C)[C@H](C(=O)N(C)C)CC(=O)N1C [PP2234]			A (a compound having 10 or more and less than 20 is denoted as A)	A (a compound having 10 or more and less than 20 is denoted as A)		
15.9 nM	CCO[C@@H]1C[C@H]2C(=O)NC3(CCC3)C(=O)N(C)[C@@H](C3CCCC3)C(=O)N(C)[C@H](C(=O)N(C)CC)CC(=O)N(C)[C@@H](CC)C(=O)N[C@@H]([C@@H](C)CC)C(=O)N(C)CC(=O)N(C)[C@H]3C/C=C\CCN(C3=O)[C@@H](CC3CCCCC3)C(=O)N(C)CC(=O)N[C@@H](CCc3cc(F)c(C(F)(F)F)c(F)c3)C(=O)N2C1 [PP1552]					A (a compound having 10 or more and less than 20 is denoted as A)	A (a compound having 10 or more and less than 20 is denoted as A)
8.5 nM	CCO[C@@H]1C[C@H]2C(=O)NC3(CCC3)C(=O)N(C)[C@@H](C3CCCC3)C(=O)N(C)[C@H](C(=O)N3CCOCC3)CC(=O)N(C)[C@@H](COC)C(=O)N[C@@H]([C@@H](C)CC)C(=O)N(C)CC(=O)N(C)[C@H]3CCCCN(C3=O)[C@@H](Cc3ccc(C(F)(F)F)cc3)C(=O)N(C)CC(=O)N[C@@H](CCc3cc(F)c(C(F)(F)F)c(F)c3)C(=O)N2C1 [PP0719]			C (A compound having a KD ratio of 0.1 or more and less than 3 is denoted as C)	B (a compound having 3 or more and less than 10 is denoted as B)		
3.9 nM	CCCN1C(=O)CN(C)C(=O)CN(C)C(=O)[C@H]([C@@H](C)CC)NC(=O)[C@H](C2CCC2)N(C)C(=O)C[C@@H](C(=O)N2CCOCC2)N(C)C(=O)[C@H](C2CCCC2)N(C)C(=O)C2(CCCC2)NC(=O)[C@@H]2CCCN2C(=O)[C@H](CCc2ccc(C(F)(F)F)c(Cl)c2)NC(=O)CN(C)C(=O)[C@@H]1Cc1ccc(C(F)(F)F)cc1 [PP0188] ([NMeGly(cBu)]I[Sar][Sar][NPrPhe(4-CF3)][Sar][hPhe(3-Cl-4-CF3)]P[Ac5c][NMeGly(cPent)][NMeD]-Morpholide; lactam N-11)	B (a compound having 3 or more and less than 10 is denoted as B)	C (A compound having a KD ratio of 0.1 or more and less than 3 is denoted as C)				
7.8 nM	CCC[C@H]1C(=O)N[C@@H]([C@@H](C)CC)C(=O)N2CCC[C@H]2C(=O)N(C)[C@H]2C/C=C\CCN(C2=O)[C@@H](Cc2ccc(C(F)(F)F)cc2)C(=O)N(C)CC(=O)N[C@@H](CCc2cc(F)c(C(F)(F)F)c(F)c2)C(=O)N2C[C@H](OCC)C[C@H]2C(=O)N(C)C2(CCC2)C(=O)N(C)[C@@H](C2CCCC2)C(=O)N(C)[C@H](C(=O)N2CCCC2)CC(=O)N1C [PP3116]	A (a compound having 10 or more and less than 20 is denoted as A)	A (a compound having 10 or more and less than 20 is denoted as A)				
